The text below walks through data of PubChem BioAssay AID292 (DTP/NCI, 2004).

Several values for one entry are separate records, joined by “and”; a condition that tells them apart may be missing. Equal entries are not always repeated. Toxic doses and inconclusive results are not listed.

This experiment relates to B6C3F1 mice, ip Sarcoma M5076, median survival T/C. The experiment in a line: NCI In Vivo Anticancer Drug Screen. Data for tumor model Sarcoma M5076 (intraperitoneal) in B6C3F1 mice. As to conditions: endpoint: median survival time, higher = longer survival. The essentials: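 Tumour cells were transplanted into mice, compound or vehicle was given, survival of both groups was followed, and the treated figure was expressed over the control figure.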

[1] abbreviates: dose: 50.0 mg/kg/injection, schedule: Q04DX004 (ip), vehicle: Klucel (hydroxypropylcellulose) (HPC).
[2] abbreviates: dose: 100.0 mg/kg/injection, schedule: Q04DX004 (ip), vehicle: Klucel (hydroxypropylcellulose) (HPC).
The mark [3] stands for this setting: dose: 200.0 mg/kg/injection, schedule: Q04DX004 (ip), vehicle: Klucel (hydroxypropylcellulose) (HPC).
[4] abbreviates: dose: 400.0 mg/kg/injection, schedule: Q04DX004 (ip), vehicle: Klucel (hydroxypropylcellulose) (HPC).
Setting [5] is: dose: 25.0 mg/kg/injection, schedule: Q04DX004 (ip), vehicle: saline with Tween-80.
Where [6] appears, read: dose: 50.0 mg/kg/injection, schedule: Q04DX004 (ip), vehicle: saline with Tween-80.
Setting [7] is: dose: 60.0 mg/kg/injection, schedule: Q04DX004 (ip), vehicle: saline with Tween-80.
Where [8] appears, read: dose: 200.0 mg/kg/injection, schedule: Q04DX004 (ip), vehicle: saline with Tween-80.
Setting [9] is: dose: 100.0 mg/kg/injection, schedule: Q04DX004 (ip), vehicle: saline with Tween-80.
The mark [10] stands for this setting: dose: 400.0 mg/kg/injection, schedule: Q04DX004 (ip), vehicle: saline with Tween-80.

With `OCCC(N1CCOCC1)C(O)(c1ccccc1)c1ccccc1` (centres undefined), the T/C reads like this: (dose: 37.5 mg/kg/injection, schedule: Q04DX004 (ip), vehicle: saline with Tween-80) 103 % of control; (dose: 75.0 mg/kg/injection, schedule: Q04DX004 (ip), vehicle: saline with Tween-80) 106 % of control; (dose: 150.0 mg/kg/injection, schedule: Q04DX004 (ip), vehicle: saline with Tween-80) 107 % of control; (dose: 300.0 mg/kg/injection, schedule: Q04DX004 (ip), vehicle: saline with Tween-80) 100 % of control; (dose: 600.0 mg/kg/injection, schedule: Q04DX004 (ip), vehicle: saline with Tween-80) 93 % of control.
Regarding `N#CC1C(=O)NC(=O)C(C#N)C1c1ccc(Cl)c(Cl)c1` (centres undefined), the T/C reads like this: under setting [1], 102 % of control; under setting [2], 94 % of control; under setting [3], 99 % of control; under setting [4], 102 % of control.
On to `N#CC1C(=O)NC(=S)NC1c1ccc(Cl)c(Cl)c1` (centres undefined), for which the T/C is 94 % of control (dose: 37.5 mg/kg/injection, schedule: Q04DX004 (ip), vehicle: Klucel (hydroxypropylcellulose) (HPC)); 99 % of control (dose: 75.0 mg/kg/injection, schedule: Q04DX004 (ip), vehicle: Klucel (hydroxypropylcellulose) (HPC)); 97 % of control (dose: 150.0 mg/kg/injection, schedule: Q04DX004 (ip), vehicle: Klucel (hydroxypropylcellulose) (HPC)); 91 % of control (dose: 300.0 mg/kg/injection, schedule: Q04DX004 (ip), vehicle: Klucel (hydroxypropylcellulose) (HPC)); 89 % of control (dose: 600.0 mg/kg/injection, schedule: Q04DX004 (ip), vehicle: Klucel (hydroxypropylcellulose) (HPC)).
In the case of `CC1CC12OC(=O)N(c1cc(Cl)cc(Cl)c1)C2=O` (centres undefined), the T/C is 101 % of control (dose: 37.5 mg/kg/injection, schedule: Q04DX004 (ip), vehicle: saline + Tween-80 + alcohol); 99 % of control (dose: 75.0 mg/kg/injection, schedule: Q04DX004 (ip), vehicle: saline + Tween-80 + alcohol); 99 % of control (dose: 150.0 mg/kg/injection, schedule: Q04DX004 (ip), vehicle: saline + Tween-80 + alcohol); 95 % of control (dose: 300.0 mg/kg/injection, schedule: Q04DX004 (ip), vehicle: saline + Tween-80 + alcohol); 91 % of control (dose: 600.0 mg/kg/injection, schedule: Q04DX004 (ip), vehicle: saline + Tween-80 + alcohol).
For the molecule `COc1c2c(c(O)c3c4c(c(C)cc13)C1OC3(C(OC)OC5CC(C)(O)C(OC6CC(C)(O)C(O)C(C)O6)C(C)O5)OC1C(OC)(O4)C31CO1)C(=O)C(O)CC2OC1CC(C)(O)C(OC(C)=O)C(C)O1` (centres undefined), the T/C by setting is: (dose: 0.03 mg/kg/injection, schedule: Q04DX004 (ip), vehicle: saline) 120 % of control; (dose: 15.0 micrograms/kg/injection, schedule: Q04DX004 (ip), vehicle: saline) 105 % of control; (dose: 30.0 micrograms/kg/injection, schedule: Q04DX004 (ip), vehicle: saline) 115 % of control; (dose: 60.0 micrograms/kg/injection, schedule: Q04DX004 (ip), vehicle: saline) 111 % of control and 118 % of control; (dose: 120.0 micrograms/kg/injection, schedule: Q04DX004 (ip), vehicle: saline) 114 % of control; (dose: 240.0 micrograms/kg/injection, schedule: Q04DX004 (ip), vehicle: saline) 115 % of control.
Consider `Cc1cccc(OCC(O)CN2CC2)c1` (centres undefined), for which the T/C is 101 % of control and 104 % of control under setting [5]; 97 % of control (dose: 36.0 mg/kg/injection, schedule: Q04DX004 (ip), vehicle: saline with Tween-80); 105 % of control and 114 % of control under setting [6]; 102 % of control under setting [7]; 119 % of control (dose: 166.66 mg/kg/injection, schedule: Q04DX004 (ip), vehicle: saline with Tween-80); 108 % of control under setting [8]. Also, the T/C (dose: 277.77 mg/kg/injection, schedule: Q04DX004 (ip), vehicle: saline with Tween-80) was 116 % of control.
As to `CCCCCCN1CCN(Cc2ccc(N(CC)CC)cc2)C(=O)C1=O`, the T/C was 95 % of control (dose: 25.0 mg/kg/injection, schedule: Q04DX004 (ip), vehicle: Klucel (hydroxypropylcellulose) (HPC)) and 107 % of control under setting [1].
`CNC(=S)C#N`: the T/C by setting is: (dose: 12.5 mg/kg/injection, schedule: Q04DX004 (ip), vehicle: saline + Tween-80 + alcohol) 90 % of control; (dose: 50.0 mg/kg/injection, schedule: Q04DX004 (ip), vehicle: saline + Tween-80 + alcohol) 89 % of control.
Regarding `COc1cc(C2c3cc4c(cc3[C@@H](OC3OC5CO[C@@H](C)OC5C(O)C3O)[C@H]3COC(=O)C23)OCO4)cc(OC)c1OC` (some centres undefined), the T/C by setting is: (dose: 25.0 mg/kg/injection, schedule: Q04DX004 (ip), vehicle: saline) 116 % of control; under setting [1], 118 % of control; (dose: 50.0 mg/kg/injection, schedule: Q04DX004 (ip), vehicle: saline) 110 % of control; (dose: 50.0 mg/kg/injection, schedule: Q04DX004 (ip), vehicle: suspension in saline) 103 % of control; (dose: 100.0 mg/kg/injection, schedule: Q04DX004 (ip), vehicle: saline) 122 % of control; (dose: 100.0 mg/kg/injection, schedule: Q04DX004 (ip), vehicle: suspension in saline) 99 % of control. In addition, the T/C is 171 % of control under setting [3]; 123 % of control (dose: 200.0 mg/kg/injection, schedule: Q04DX004 (ip), vehicle: suspension in saline); 168 % of control (dose: 300.0 mg/kg/injection, schedule: Q04DX004 (ip), vehicle: suspension in saline); 233 % of control under setting [4].
Turning to `CC1=NN(c2ccccc2)C(=O)C1=Nc1c(C)[nH]n(-c2ccccc2)c1=O`, the T/C under setting [6] was 89 % of control, the T/C under setting [9] is 92 % of control, the T/C under setting [8] is 97 % of control and the T/C under setting [10] is 94 % of control.
On to `COc1cccc(Sc2ccc([N+](=O)[O-])c3no[n+]([O-])c23)c1`, for which the T/C by setting is: (dose: 3.75 mg/kg/injection, schedule: Q04DX004 (ip), vehicle: saline with Tween-80) 105 % of control; (dose: 7.5 mg/kg/injection, schedule: Q04DX004 (ip), vehicle: saline with Tween-80) 106 % of control; (dose: 15.0 mg/kg/injection, schedule: Q04DX004 (ip), vehicle: saline with Tween-80) 105 % of control; (dose: 30.0 mg/kg/injection, schedule: Q04DX004 (ip), vehicle: saline with Tween-80) 101 % of control; under setting [7], 98 % of control.
Take `CN1CCOc2c1cnn(CCO)c2=O`: the T/C is 105 % of control under setting [5]; 96 % of control under setting [6]; 94 % of control under setting [9]; 99 % of control under setting [8]; 99 % of control under setting [10].
Consider `CN(C)c1ccc2c(Nc3ccc(NS(C)(=O)=O)cc3)c3ccc(N(C)C)cc3nc2c1`, for which the T/C by setting is: (dose: 21.6 mg/kg/injection, schedule: Q04DX004 (ip), vehicle: Klucel (hydroxypropylcellulose) (HPC)) 116 % of control; under setting [1], 151 % of control; under setting [2], 159 % of control; (dose: 166.7 mg/kg/injection, schedule: Q04DX004 (ip), vehicle: Klucel (hydroxypropylcellulose) (HPC)) 172 % of control.
Regarding `Nc1ccn([C@@H]2C=C(CO)[C@@H](O)[C@H]2O)c(=O)n1`, the T/C by setting is: (dose: 0.13 mg/kg/injection, schedule: Q01DX013 (ip), vehicle: saline) 96 % of control; (dose: 0.25 mg/kg/injection, schedule: Q01DX013 (ip), vehicle: saline) 104 % of control; (dose: 0.5 mg/kg/injection, schedule: Q01DX013 (ip), vehicle: saline) 105 % of control.
In the case of `N#CC1C(=O)NC(=O)C(C#N)C1C(Cl)(Cl)Cl` (centres undefined), the T/C under setting [1] is 94 % of control and the T/C under setting [2] is 95 % of control.
